Earlier results as cited in patent publication US11654140B2, “Treatment of ocular inflammatory diseases using laquinimod” (Active Biotech AB, priority 2012, dated 2023).

System: patients with a history of uveitis
Conditions: patients with a history of uveitis (Sergott, 2011); cited from earlier work

CCCCCCCCc1ccc(CCC(N)(CO)CO)cc1 [fingolimod]
risk of macular edema: known to pose a risk of macular edema
